Results published in PubChem BioAssay (NCI).
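96-well plates; 48 h exposure; 5 concentrations. Endpoints by linear interpolation between flanking doses. Not reached: highest tested concentration assigned. GI50 is the concentration that inhibits growth by half. Definition used: TGI = concentration required for complete inhibition of growth.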

Tests used:
Experiment in all cases: NCI-60 cell line screen, 48 h
[1] = system: BT-549 breast
[2] = system: PC-3 prostate
[3] = system: MDA-MB-231 breast
[4] = system: COLO 205 colon
[5] = system: OVCAR-8 ovarian
[6] = system: RXF 393 renal
[7] = system: HOP-62 NSCLC
[8] = system: NCI-H522 lung
[9] = system: SNB-75 CNS
[10] = system: HCT-15 colon

Compound | TGI [1] | TGI [2] | TGI [3] | TGI [4] | TGI [5] | TGI [6] | TGI [7] | TGI [8] | TGI [9] | TGI [10] | GI50 [1] | GI50 [2] | GI50 [3] | GI50 [4] | GI50 [5] | GI50 [6] | GI50 [7] | GI50 [8] | GI50 [9] | GI50 [10]
O=[N+]([O-])c1ccc(S[C@@H]2[C@H]3c4c(-c5ccccc5)[nH]c(-c5ccccc5)c4[C@@H]2C[C@H]3Cl)cc1 | 9.78 µM | > 100 µM | > 100 µM | > 100 µM | > 100 µM | 4.3 µM | 67.6 µM | 14.1 µM | 8.29 µM | 6.84 µM |  |  |  |  |  |  |  |  |  | 
Cc1cc(=O)n2nc(SCc3ccccc3)sc2n1 | > 100 µM | > 100 µM | > 100 µM | > 100 µM | > 100 µM | > 100 µM | > 100 µM | > 100 µM | > 100 µM | > 100 µM |  |  |  |  |  |  |  |  |  | 
CC(=O)O[C@@H]1C[C@@]23C[C@@]24CC[C@H](OC2OCC(O)C(O)C2O)C(C)(C)[C@@H]4CC=C3[C@]2(C)C[C@@H]3OC4(C[C@@H](C)[C@@H]3[C@@]12C)OC(O)[C@@]1(C)O[C@@H]41 (stereo not given in full) | 97.3 µM | 61.1 µM | 44 µM | 44 µM | > 100 µM | 37.1 µM | 78.3 µM | 89.4 µM | 58.7 µM | 96.7 µM |  |  |  |  |  |  |  |  |  | 
O=[N+]([O-])c1c(Br)cc(Br)c2c1Nc1c(ccc(Cl)c1Cl)S2 | 8.87 µM | 35 µM | 26.6 µM | 26.3 µM | 13.6 µM | 35.1 µM | 34.9 µM | 20.5 µM | > 72 µM | 39.7 µM |  |  |  |  |  |  |  |  |  | 
COc1cccc(CC(C)NCC(O)c2ccc(O)c(O)c2)c1 (stereo not given) | > 100 µM | > 100 µM | 60.1 µM | > 100 µM | 53.6 µM | > 100 µM | > 100 µM | > 100 µM | > 100 µM | > 100 µM |  |  |  |  |  |  |  |  |  | 
Cc1ccc(C2=NOC(=O)[C@@H]3CCCC[C@@H]23)cc1 | > 100 µM | > 100 µM | > 100 µM | > 100 µM | > 100 µM | > 100 µM | > 100 µM | > 100 µM | > 100 µM | > 100 µM |  |  |  |  |  |  |  |  |  | 
CCOC(=O)C1(C(=O)OCC)[C@H](c2ccccc2)C2=NO[C@@H]3CCC[C@H]1[C@H]23 | > 100 µM | > 100 µM | > 100 µM | > 100 µM | > 100 µM | > 100 µM | > 100 µM | > 100 µM | > 100 µM | > 100 µM |  |  |  |  |  |  |  |  |  | 
C/C(=C\c1ccccn1)c1ccccn1 | > 100 µM | > 100 µM | > 100 µM | > 100 µM | > 100 µM | > 100 µM | > 100 µM | > 100 µM | > 100 µM | > 100 µM |  |  |  |  |  |  |  |  |  | 
Clc1ccc(Cc2nc3ccccc3nc2-c2cccc(Br)c2)cc1 | 9.93 µM | 4.88 µM | 14.1 µM | 12 µM | 8.09 µM | 6.26 µM | 36.1 µM | 3.62 µM | 35.7 µM | 3.11 µM |  |  |  |  |  |  |  |  |  | 
NC(=S)N/N=C\c1ccc(OCc2cccc(COc3ccc(/C=N/NC(N)=S)cc3)n2)cc1 | 12.2 µM | > 100 µM | 76 µM | > 100 µM | > 100 µM | 47.9 µM | > 100 µM | > 100 µM | > 100 µM | > 100 µM |  |  |  |  |  |  |  |  |  | 
CCOP(=O)(OCC)C(Nc1cccc(F)c1)c1ccccc1 (stereo not given) | > 100 µM | > 100 µM | > 100 µM | > 100 µM | > 100 µM | > 100 µM | > 100 µM | > 100 µM | > 100 µM | > 100 µM |  |  |  |  |  |  |  |  |  | 
Cc1ccc(C(=O)N/N=C(\N=Nc2cccc(Cl)c2)c2ccc(N(CCC#N)CCC#N)cc2C)cc1 | > 100 µM | > 100 µM | > 100 µM | > 100 µM | > 100 µM | > 100 µM | > 100 µM | > 100 µM | > 100 µM | > 100 µM |  |  |  |  |  |  |  |  |  | 
COc1cc(/C=C/C(=O)c2c(=O)o[nH][n+]2-c2ccccc2)ccc1[O-] | 7.9 µM | 21.7 µM | 12.4 µM | 27.2 µM | 8.09 µM | 4.65 µM | 16 µM | 4.29 µM | 8.7 µM | 6.12 µM |  |  |  |  |  |  |  |  |  | 
Cc1ccc(C(=O)O)c(CC2Cc3c(C)cccc3C2=O)c1 (stereo not given) | > 100 µM | > 100 µM | > 100 µM | > 100 µM | > 100 µM | > 100 µM | > 100 µM | > 100 µM | > 100 µM | > 100 µM |  |  |  |  |  |  |  |  |  | 
CCOC(=O)c1c(CN2CCNCC2)nc2ccccc2c1-c1ccccc1 | 31.9 µM | 27.3 µM | 29.3 µM | 35.8 µM | 30.6 µM | 13.8 µM | 31 µM | 29 µM | 20.5 µM | 32.8 µM |  |  |  |  |  |  |  |  |  | 
O=C1C=CC(=O)C(CNc2ccc(C(=O)OC34CC5CC(CC(C5)C3)C4)cc2)=C1 | 15.7 µM | 22 µM | 36.2 µM | 6.81 µM | 56 µM | 4.51 µM | 17.1 µM | 2.28 µM | 18.1 µM | 12.3 µM |  |  |  |  |  |  |  |  |  | 
COC(=O)[C@H]1[C@@H](C(C)C)O[C@@H](C(C)C)O[C@H]1C(F)(F)F | > 100 µM | > 100 µM | > 100 µM | > 100 µM | > 100 µM | > 100 µM | > 100 µM | > 100 µM | > 100 µM | > 100 µM |  |  |  |  |  |  |  |  |  | 
N=C1N(S(=O)(=O)c2ccccc2)[C@@H](Cc2ccccc2)[C@H](c2ccccc2)C1(c1ccccc1)c1ccccc1 | > 100 µM | > 100 µM | > 100 µM | > 100 µM | > 100 µM | > 100 µM | > 100 µM | > 100 µM | > 100 µM | > 100 µM |  |  |  |  |  |  |  |  |  | 
Cc1cc(/C=C\c2ccc3ccccc3[n+]2C)c(O)c2ncccc12 | 4.63 µM | 7.58 µM | 1.9 µM | 4.58 µM | > 100 µM | 6.03 µM | 8.03 µM | 5.02 µM | 7.24 µM | 17.8 µM | 0.26 µM | 0.855 µM | 0.259 µM | 0.448 µM | 0.399 µM | 1.55 µM | 0.497 µM | 1.05 µM | 1.83 µM | 1.52 µM
CN(C)CCNC(=O)c1ccc(NCCCN(C)CCCNc2ccc3c(=O)n(CCN(C)C)c(=O)n4c5ccccc5c(=O)c2c34)c2c(=O)c3ccccc3[nH]c12 | 1.25 µM | 0.249 µM | 0.234 µM | 0.353 µM | 0.885 µM | 0.271 µM | 0.309 µM | 0.168 µM | 0.0449 µM | 1.31 µM |  |  |  |  |  |  |  |  |  | 
